The results in this text go back to ChEMBL document CHEMBL1134781, “1,2-Benzothiazine 1,1-dioxide P(2)-P(3) peptide mimetic aldehyde calpain I inhibitors” (J Med Chem, 2001).

The target of test [1] is MOLT-4. The test is described as follows: Inhibitory concentration against MOLT-4 cells (human T-cell leukemia cell line).
Test [2] deals with T1, Calpain-1 catalytic subunit (Homo sapiens, UniProt P07384).
T1 sequence (P07384 whole entry): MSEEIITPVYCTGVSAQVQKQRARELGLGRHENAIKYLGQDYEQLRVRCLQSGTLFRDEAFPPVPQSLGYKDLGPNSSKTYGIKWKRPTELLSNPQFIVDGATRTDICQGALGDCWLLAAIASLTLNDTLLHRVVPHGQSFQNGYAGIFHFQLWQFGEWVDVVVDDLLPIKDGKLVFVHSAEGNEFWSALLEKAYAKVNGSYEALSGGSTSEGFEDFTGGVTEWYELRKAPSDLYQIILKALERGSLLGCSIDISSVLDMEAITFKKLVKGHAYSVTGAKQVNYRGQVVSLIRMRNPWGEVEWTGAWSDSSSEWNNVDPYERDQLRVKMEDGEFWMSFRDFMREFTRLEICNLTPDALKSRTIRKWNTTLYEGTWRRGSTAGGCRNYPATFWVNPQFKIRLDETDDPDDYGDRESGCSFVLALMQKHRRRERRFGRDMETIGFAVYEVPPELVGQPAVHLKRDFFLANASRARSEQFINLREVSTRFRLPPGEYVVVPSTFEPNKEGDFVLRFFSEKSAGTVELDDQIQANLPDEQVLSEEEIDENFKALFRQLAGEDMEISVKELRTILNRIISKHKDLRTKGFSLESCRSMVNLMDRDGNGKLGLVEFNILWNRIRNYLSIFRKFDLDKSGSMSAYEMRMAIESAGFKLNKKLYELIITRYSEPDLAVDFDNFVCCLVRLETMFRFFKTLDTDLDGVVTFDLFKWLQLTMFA
The test is described as follows: Compound was evaluated for inhibitory activity towards human calpain I isomer 1.

In test [3] the target is T1, Calpain-1 catalytic subunit. The test is described as follows: (§1) Inhibitory activity towards human calpain I.
For test [4] the target is unchanged. The description is as §1. The source holds these as a separate data set.
The target is the same in test [5]. The test can be described thus: Inhibitory activity against calpain-I.

Broadly, the IC50 is the concentration needed to halve the response being measured. Low values mean inhibition by little substance, high ones a need for much substance. The compound `COc1cc2c(cc1OC)S(=O)(=O)OC(C(=O)N[C@H](C=O)Cc1ccccc1)C2` (mixture of isomers) displayed an IC50 in test [1] of 2200 nM. Compound `O=C[C@H](Cc1ccccc1)NC(=O)C1Cc2ccccc2C(=O)N1` (stereo partly specified) displayed an IC50 in test [2] of about 5000 nM. Regarding `COc1cc2c(cc1OC)S(=O)(=O)NC(C(=O)N[C@H](C=O)Cc1ccccc1)C2` (stereo partly specified), the 50% inhibitory concentration (IC50) in test [3] was 800 nM; in test [4], 700 nM. On to `CC(C)N1C(C(=O)N[C@H](C=O)Cc2ccccc2)Cc2cc3c(cc2S1(=O)=O)OCCO3` (mixture of isomers), for which half-maximal inhibition in test [1] (IC50) required 2600 nM.

With `CN1C(=O)c2ccccc2CC1C(=O)N[C@H](C=O)Cc1ccccc1` (stereo partly specified), the values for the half-maximal inhibitory concentration (IC50) in test [2] and in test [3] were 85 nM and about 1000 nM, respectively. Compound `COc1cc2c(cc1OC)S(=O)(=O)N(Cc1ccccc1)C(C(=O)N[C@H](C=O)Cc1ccccc1)C2` (stereo partly specified) registered an IC50 in test [3] of 1000 nM. `O=C[C@H](Cc1ccccc1)NC(=O)C(Cc1ccccc1)NS(=O)(=O)c1ccccc1` (stereo partly specified) gave an IC50 in test [5] of 20 nM. Consider `CC(C)CN1C(C(=O)N[C@H](C=O)Cc2ccccc2)Cc2cc(Cl)ccc2S1(=O)=O` (stereo partly specified), for which the IC50 in test [3] and in test [4] was 200 nM throughout.

As to `COc1cc2c(cc1OC)S(=O)(=O)N(C)C(C(=O)N[C@H](C=O)Cc1ccccc1)C2` (stereo partly specified), the IC50 in test [1] was found to be 1900 nM.

The compound `CN1C(C(=O)N[C@H](C=O)Cc2ccccc2)Cc2ccccc2S1(=O)=O` (stereo partly specified) yielded an IC50 in test [1] of 1700 nM. The same measure, in the same setting: with `CN1C(C(=O)N[C@H](C=O)Cc2ccccc2)Cc2cc3c(cc2S1(=O)=O)OCCO3` (mixture of isomers) the figure was 2000 nM; with `COC1=C(C(=O)N[C@H](C=O)Cc2ccccc2)N(C)S(=O)(=O)c2ccccc21`, 3200 nM. For `CS(=O)(=O)NC(COCc1ccccc1)C(=O)N[C@H](C=O)Cc1ccccc1` (stereo partly specified), the IC50 in test [5] was 11 nM. In test [1], `CN1C(C(=O)N[C@H](C=O)Cc2ccccc2)=Cc2cc3c(cc2S1(=O)=O)OCCO3` had an IC50 of 900 nM.

As for `CN1C(C(=O)N[C@H](C=O)CCCCNS(=O)(=O)c2ccccc2)Cc2cc3c(cc2S1(=O)=O)OCCO3` (stereo partly specified), in test [1], it took 1800 nM to reach half-maximal inhibition (IC50). As for `CN1C(C(=O)N[C@H](C=O)Cc2ccccc2)Cc2cc(N3CCOCC3)ccc2S1(=O)=O` (stereo partly specified), the half-inhibitory concentration (IC50) is 500 nM in test [3] and 4100 nM in test [1]. Compound `CN1C(C(=O)N[C@H](C=O)Cc2ccccc2)Cc2cc(Cl)ccc2S1(=O)=O` (stereo partly specified) gave an IC50 in test [1] of 2200 nM.
